Results: patent US8440837B2, “2-substituted-ethynylthiazole derivatives and uses of same” (H. Lundbeck A/S, priority 2009, dated 2013)

Experiments:
[1] = tested on: working memory processes (cognition); assay: Novel object recognition (NOR) test; assay type: in vivo, rats
Experimental: Cognition can be assessed by the novel object recognition (NOR). NOR can be used to access cognitive performance with respect to processes of working memory, such as recognition, interpretation and appropriate response. The NOR test was performed using the compound of Example 1 and reference compound in vehicle of 20% β-cyclodextrin (βCD) in dH2O. Example 1 (at 3.0 mg/kg, ip in rats) has activity as measured in the NOR test. Along with Example 1, Examples 2, 12 and 35 (at 1.0 mg/kg, po in rats) have activity as measured in the NOR test.

[2] = molecular target: human metabotropic glutamate receptor 5 (hmGluR5) (UniProt P31424); assay: Calcium mobilization (FLIPR) assay, positive allosteric modulation of the EC20 glutamate response; assay type: cell-based; details: HEK 293 cells; for maximum modulation (Emax): EC20 glutamate response; for EC50: increase in EC20 glutamate response
[3] = molecular target: mGluR5 (Homo sapiens, UniProt P41594); assay: [3H] MPEP radioligand filtration binding assay on membrane homogenates; details: 5 nM [3H] MPEP, Cheng-Prusoff from IC50
Chain of mGluR5 (P41594 21-1212): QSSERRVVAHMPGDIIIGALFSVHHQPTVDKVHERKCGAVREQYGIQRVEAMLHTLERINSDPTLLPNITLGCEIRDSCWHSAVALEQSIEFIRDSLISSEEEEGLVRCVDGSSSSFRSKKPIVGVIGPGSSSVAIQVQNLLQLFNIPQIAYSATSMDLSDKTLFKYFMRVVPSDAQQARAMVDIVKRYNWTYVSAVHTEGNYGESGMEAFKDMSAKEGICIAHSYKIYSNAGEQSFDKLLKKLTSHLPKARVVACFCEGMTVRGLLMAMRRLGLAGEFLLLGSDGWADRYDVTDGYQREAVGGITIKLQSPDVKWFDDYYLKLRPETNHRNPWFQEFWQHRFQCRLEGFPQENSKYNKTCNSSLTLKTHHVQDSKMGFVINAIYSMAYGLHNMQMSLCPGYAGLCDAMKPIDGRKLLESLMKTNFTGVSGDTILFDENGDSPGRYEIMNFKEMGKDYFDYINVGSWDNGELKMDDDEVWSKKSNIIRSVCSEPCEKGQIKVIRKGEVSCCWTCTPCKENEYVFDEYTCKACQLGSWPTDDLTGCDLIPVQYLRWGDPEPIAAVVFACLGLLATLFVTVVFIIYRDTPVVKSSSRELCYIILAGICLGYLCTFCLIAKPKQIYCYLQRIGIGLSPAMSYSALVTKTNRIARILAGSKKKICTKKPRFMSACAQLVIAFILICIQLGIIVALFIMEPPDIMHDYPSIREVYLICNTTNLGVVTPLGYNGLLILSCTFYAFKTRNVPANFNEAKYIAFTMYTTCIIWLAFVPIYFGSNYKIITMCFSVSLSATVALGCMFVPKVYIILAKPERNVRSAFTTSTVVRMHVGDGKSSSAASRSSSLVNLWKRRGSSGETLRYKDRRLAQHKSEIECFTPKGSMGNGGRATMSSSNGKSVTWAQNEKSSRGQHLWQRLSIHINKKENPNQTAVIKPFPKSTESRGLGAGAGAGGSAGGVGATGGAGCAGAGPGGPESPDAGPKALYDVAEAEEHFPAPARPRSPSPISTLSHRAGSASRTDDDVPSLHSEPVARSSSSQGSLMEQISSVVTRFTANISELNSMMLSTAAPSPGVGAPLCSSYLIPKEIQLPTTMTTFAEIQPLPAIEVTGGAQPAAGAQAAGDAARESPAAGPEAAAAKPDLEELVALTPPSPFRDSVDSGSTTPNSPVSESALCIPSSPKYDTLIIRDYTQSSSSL
Experimental: Binding assays were performed as described in [J. A. O'Brien et al. Mol. Pharmacol., 2003, 64, 731-740] with slight modifications. Briefly, after thawing, the membrane homogenates were resuspended in 50 mM Tris-HCl, 0.9% NaCl binding buffer at pH 7.4 to a final assay concentration of 20 μg protein/well for [^3H] […] ([^3H] MPEP) (American Radiolabeled Chemicals, Inc., St. Louis, Mo.) filtration binding. Incubations included 5 nM [^3H] MPEP, membranes and either buffer or varying concentrations of compound. Samples were incubated for 60 min at room temperature with shaking. Non-specific binding was defined with 10 μM MPEP. After incubation, samples were filtered over a GF/C filter (presoaked in 0.25% polyethyleneimine (PEI)) and then washed 4 times using a Tomtec® Harvester 96® Mach III cell harvester (Tomtec, Hamden, Conn.) with 0.5 mL ice-cold 50 mM Tris-HCl (pH 7.4).
IC50 values were derived from the inhibition curve and Ki values were calculated according to the Cheng and Prusoff equation of Ki=IC50/(1+[L]/Kd) described in [Y. Cheng and W. H. Prusoff Biochem. Pharmacol. 1973, 22, 3099-3108] where [L] is the concentration of radioligand and Kd is its dissociation constant at the receptor, derived from the saturation isotherm.

## O=C(c1cnc(C#Cc2ccccc2)s1)N1CCCCC1 [Example 1, (2-Phenylethynyl-thiazol-5-yl)-piperidin-1-yl-methanone]
[1]; 1.0 mg/kg, po in rats, FIG. 2
  activity in the NOR test: have activity
[1]; 3.0 mg/kg, ip in rats, FIG. 1
  activity in the NOR test: has activity
[2]
  maximum modulation (Emax): 210%
  EC50: 0.0036 µM
[3]
  Ki: 0.139 µM

## O=C(c1cnc(C#Cc2ccccc2)s1)N1CCC(F)CC1 [Example 2, (4-Fluoro-piperidin-1-yl)-(2-phenylethynyl-thiazol-5-yl)-methanone]
[1]; 1.0 mg/kg, po in rats, FIG. 2
  activity in the NOR test: have activity
[2]
  maximum modulation (Emax): 130%
  EC50: 0.0079 µM
[3]
  Ki: 0.192 µM
